Experimental findings from article PMC12352620, “Fragment-based discovery of dual ligand pharmacophores for lipid-sensing transcription factors for designed polypharmacology” (RSC Medicinal Chemistry, 2025) are described below.

What all share (format): cell-based
Experiment [1] has as its target T1, RARα (Homo sapiens, UniProt P10276).
T1 construct: expressed in transfected cells; host or cells: HEK293T
T1 sequence (P10276 154-462 limits assumed): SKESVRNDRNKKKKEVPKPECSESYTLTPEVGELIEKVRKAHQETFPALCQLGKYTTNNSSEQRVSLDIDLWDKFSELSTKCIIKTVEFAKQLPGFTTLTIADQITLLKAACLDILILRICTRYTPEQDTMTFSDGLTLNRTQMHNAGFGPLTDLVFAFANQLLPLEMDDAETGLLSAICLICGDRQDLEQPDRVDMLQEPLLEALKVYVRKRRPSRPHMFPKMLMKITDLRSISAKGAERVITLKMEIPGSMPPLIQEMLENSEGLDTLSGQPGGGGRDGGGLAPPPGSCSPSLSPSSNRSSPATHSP
As to the kind of experiment: Gal4-hybrid reporter gene assay RARα (selectivity). The following applies: mean, n ≥ 3, Fig. 8. As for the experimental part: (§1) NR modulation was determined as described previously[45] in Gal4 hybrid reporter gene assays in HEK293T cells (German Collection of Microorganisms and Cell Culture GmbH, DSMZ) using pFR-Luc (Stratagene, La Jolla, CA, USA; reporter), pRL-SV40 (Promega, Madison, WI, USA; internal control) and the hybrid receptor clones pFA-CMV-hTHRα-LBD,[46] pFA-CMV-hPPARγ-LBD,[47] pFA-CMV-hFXR-LBD,[48] and pFA-CMV-hRXRα-LBD,[49] coding for the hinge region and ligand binding domain of the canonical isoform of the respective NR. Cells were cultured in Dulbecco's modified Eagle's medium (DMEM), high glucose supplemented with 10% fetal calf serum (FCS), sodium pyruvate (1 mM), penicillin (100 U mL^−1), and streptomycin (100 μg mL^−1) at 37 °C and 5% CO2 and seeded in 96-well plates (3 × 10^4 cells per well). After 24 h, medium was changed to Opti-MEM without supplements and cells were transiently transfected using Lipofectamine LTX reagent (Invitrogen, Carlsbad, CA, USA) according to the manufacturer's protocol. Five hours after transfection, cells were incubated with the test compounds in Opti-MEM supplemented with penicillin (100 U mL^−1), streptomycin (100 μg mL^−1) and 0.1% DMSO for 16 h before luciferase activity was measured using the Dual-Glo Luciferase Assay System (Promega) according to the manufacturer's protocol on a Tecan Spark luminometer (Tecan Deutschland GmbH, Crailsheim, Germany). Firefly luminescence was divided by Renilla luminescence and multiplied by 1000 resulting in relative light units (RLU) to normalize for transfection efficiency and cell growth. Fold activation was obtained by dividing the mean RLU of test compound by the mean RLU of the untreated control. All samples were tested in at least three biologically independent experiments in duplicates. For dose–response curve fitting and calculation of EC50 values, the equation “[agonist] vs. response − variable slope (four parameters)” was used in GraphPad Prism (version 7.00, GraphPad Software, La Jolla, CA, USA). For selectivity profiling, the hybrid reporter gene assay was performed with Gal4 fusion receptor plasmids for RARα, PPARα, PPARδ, VDR, CAR and LXRα. The following reference agonists were used: triiodothyronine (1 μM, THR), all-trans retinoic acid (1 μM, RAR), GW7647 (1 μM, PPARα), pioglitazone (1 μM, PPARγ), L165041 (1 μM, PPARδ), calcitriol (1 μM, VDR), CITCO (1 μM, CAR), T0901317 (1 μM, LXR), GW4064 (1 μM, FXR), bexarotene (1 μM, RXR).
In general terms: Reporter assays use an easily measured gene product as a stand-in for the process of interest.

Experiment [2] has as its target T2, PPARγ (Homo sapiens, UniProt P37231).
T2 construct: expressed in transfected cells; host or cells: HEK293T
T2 sequence (P37231 238-503 limits assumed): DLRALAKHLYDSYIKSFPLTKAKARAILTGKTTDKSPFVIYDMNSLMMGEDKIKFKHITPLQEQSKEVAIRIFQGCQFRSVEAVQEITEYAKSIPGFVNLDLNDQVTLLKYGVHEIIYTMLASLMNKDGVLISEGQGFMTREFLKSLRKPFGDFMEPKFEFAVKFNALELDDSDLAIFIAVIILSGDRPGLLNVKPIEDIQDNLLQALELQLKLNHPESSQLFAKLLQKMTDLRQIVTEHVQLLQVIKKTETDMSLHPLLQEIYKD
Briefly: Gal4-hybrid reporter gene assay PPARγ. The following applies: n ≥ 3; for fold act. PPARγ: mean, Fig. 8; for EC50: HEK293T, Gal4-hybrid reporter, Inactive = tested 1–300 μM; for EC50 / max. fold activation PPARγ: mean ± S.E.M.; for max. fold activation PPARγ: maximum reporter activation vs DMSO (0.1%) treated cells. As to the method: as §1

Experiment [3] has as its target T3, FXR (Homo sapiens, UniProt Q96RI1).
T3 construct: expressed in transfected cells; host or cells: HEK293T
T3 sequence (Q96RI1 262-486 limits assumed): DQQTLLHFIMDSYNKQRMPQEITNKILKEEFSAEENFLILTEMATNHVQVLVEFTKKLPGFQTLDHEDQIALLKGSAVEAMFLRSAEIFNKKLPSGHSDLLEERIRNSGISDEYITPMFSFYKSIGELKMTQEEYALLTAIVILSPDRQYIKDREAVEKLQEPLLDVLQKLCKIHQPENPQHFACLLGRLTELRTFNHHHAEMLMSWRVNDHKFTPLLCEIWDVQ
As to the kind of experiment: Gal4-hybrid reporter gene assay FXR. The following applies: n ≥ 3; for fold act. FXR: mean, Fig. 8; for EC50 / EC50 FXR: HEK293T, Gal4-hybrid reporter, Inactive = tested 1–300 μM; for EC50 / max. fold activation FXR / EC50 FXR: mean ± S.E.M.; for max. fold activation FXR: maximum reporter activation vs DMSO (0.1%) treated cells. As for the experimental part:
as §1

Experiment [4] concerns the target T4, PPARδ (Homo sapiens, UniProt Q03181).
T4 construct: expressed in transfected cells; host or cells: HEK293T
T4 sequence (Q03181 138-441 limits assumed): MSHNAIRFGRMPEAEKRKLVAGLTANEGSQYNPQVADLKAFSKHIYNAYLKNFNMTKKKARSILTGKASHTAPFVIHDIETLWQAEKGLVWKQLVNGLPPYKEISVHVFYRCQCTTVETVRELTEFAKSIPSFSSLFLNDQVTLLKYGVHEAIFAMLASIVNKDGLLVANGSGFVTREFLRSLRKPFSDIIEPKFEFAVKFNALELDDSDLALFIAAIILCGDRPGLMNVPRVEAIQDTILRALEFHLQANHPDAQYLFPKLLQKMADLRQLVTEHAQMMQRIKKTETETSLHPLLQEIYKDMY
Briefly: Gal4-hybrid reporter gene assay PPARδ (selectivity). The following applies: mean, n ≥ 3, Fig. 8. As to the method:
as §1

Experiment [5] addresses T5, LXRα (Homo sapiens, UniProt Q13133).
T5 construct: expressed in transfected cells; host or cells: HEK293T
T5 sequence (Q13133 171-447 limits assumed): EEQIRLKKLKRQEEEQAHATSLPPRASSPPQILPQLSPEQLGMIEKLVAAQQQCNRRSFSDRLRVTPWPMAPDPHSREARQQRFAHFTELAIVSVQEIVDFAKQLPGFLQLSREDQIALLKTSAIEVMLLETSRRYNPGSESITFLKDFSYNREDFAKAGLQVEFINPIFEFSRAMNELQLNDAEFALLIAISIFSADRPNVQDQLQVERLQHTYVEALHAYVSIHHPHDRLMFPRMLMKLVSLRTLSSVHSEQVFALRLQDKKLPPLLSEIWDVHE
Briefly: Gal4-hybrid reporter gene assay LXRα (selectivity). The following applies: mean, n ≥ 3, Fig. 8. As to the method:
as §1

What is called EC50 is the concentration giving half of the maximal effect.

Take `O=C(O)/C=C/C(=O)c1ccc2ccccc2c1` [4.8, (E)-4-Oxo-4-(naphthalen-2-yl)but-2-enoic acid]: the “fold act. RARα” value in experiment [1] (40 μM) was determined as 3 fold. In addition, the “fold act. PPARγ” value in experiment [2] (40 μM) was determined as 18 fold. Besides, in experiment [2], the EC50 came to 27 ± 1 µM and the “max. fold activation PPARγ” value is on record as “(16.7 ± 0.5-fold)”. Besides, in experiment [3] (40 μM), the “fold act. FXR” value is listed as 6 fold. For the same compound, in experiment [3], a half-maximal response (EC50) required 26 ± 4 µM and the “max. fold activation FXR” value is listed as “(7 ± 1-fold)”. Besides, the “fold act. PPARδ” value in experiment [4] (40 μM) worked out at 3 fold. For the same compound, the “fold act. LXR” value in experiment [5] (40 μM) was found to be 3 fold.

In the case of `CCOc1ccc(-c2cc(C(=O)O)co2)cc1` [3.1, 5-(4-Ethoxyphenyl)furan-3-carboxylic acid], the “fold act. RARα” value in experiment [1] (10 μM) worked out at 6 fold. In experiment [2] (10 μM), the “fold act. PPARγ” value is on record as 6 fold. Also, in experiment [2], the EC50 is 3 ± 1 µM and the “max. fold activation PPARγ” value was “(6.4 ± 0.6-fold)”. Moreover, the “fold act. FXR” value in experiment [3] (10 μM) is on record as 6 fold. Moreover, in experiment [3], it took 1.3 ± 0.3 µM to reach a half-maximal effect (EC50) and the “max. fold activation FXR” value was “(6.4 ± 0.3-fold)”. The “fold act. PPARδ” value in experiment [4] (10 μM) stood at 2 fold. Also, in experiment [5] (10 μM), the “fold act. LXR” value is recorded as 3 fold.

For the compound `O=C(O)/C=C/C(=O)c1ccc(-c2ccccc2)cc1` [4.7, (E)-4-([1,1′-Biphenyl]-4-yl)-4-oxobut-2-enoic acid], the “fold act. RARα” value in experiment [1] (30 μM) came to 3 fold. For the same compound, in experiment [2] (30 μM), the “fold act. PPARγ” value was found to be 32 fold. Further, in experiment [2], the response was half-maximal at 18 ± 4 µM (EC50) and the “max. fold activation PPARγ” value is reported as “(33.4 ± 2.7-fold)”. Further, the “fold act. FXR” value in experiment [3] (30 μM) came to 1 fold. The “EC50 FXR” value in experiment [3] is reported as “Inactive”. Besides, the “fold act. PPARδ” value in experiment [4] (30 μM) turned out to be 3 fold. For the same compound, in experiment [5] (30 μM), the “fold act. LXR” value came out at 1 fold.

For the compound `O=C(O)/C=C/C(=O)c1ccc(Cl)cc1Cl` [4.6, (E)-4-Oxo-4-(2,4-dichlorophenyl)but-2-enoic acid], in experiment [1] (30 μM), the “fold act. RARα” value came to 1 fold. In addition, the “fold act. PPARγ” value in experiment [2] (30 μM) is listed as 9 fold. For the same compound, in experiment [2], the EC50 turned out to be 20 ± 5 µM and the “max. fold activation PPARγ” value is given as “(13 ± 2-fold)”. In experiment [3] (30 μM), the “fold act. FXR” value was found to be 1 fold. The “EC50 FXR” value in experiment [3] is on record as “Inactive”. Also, the “fold act. PPARδ” value in experiment [4] (30 μM) is listed as 1 fold. Besides, the “fold act. LXR” value in experiment [5] (30 μM) is reported as 1 fold.
